Assay results from ChEMBL document CHEMBL6078619, “Targeting focal adhesion kinase (FAK) in cancer therapy: A recent update on inhibitors and PROTAC degraders” (Eur J Med Chem, 2024).
Values belong to the compound of their own block, whether it stands above or below them.

Key:
Focal adhesion kinase 1 [1] = molecular target: T1, Focal adhesion kinase 1 (Homo sapiens, UniProt Q05397); assay: Inhibition of FAK (unknown origin)
Target sequence in this assay (Q05397 whole entry): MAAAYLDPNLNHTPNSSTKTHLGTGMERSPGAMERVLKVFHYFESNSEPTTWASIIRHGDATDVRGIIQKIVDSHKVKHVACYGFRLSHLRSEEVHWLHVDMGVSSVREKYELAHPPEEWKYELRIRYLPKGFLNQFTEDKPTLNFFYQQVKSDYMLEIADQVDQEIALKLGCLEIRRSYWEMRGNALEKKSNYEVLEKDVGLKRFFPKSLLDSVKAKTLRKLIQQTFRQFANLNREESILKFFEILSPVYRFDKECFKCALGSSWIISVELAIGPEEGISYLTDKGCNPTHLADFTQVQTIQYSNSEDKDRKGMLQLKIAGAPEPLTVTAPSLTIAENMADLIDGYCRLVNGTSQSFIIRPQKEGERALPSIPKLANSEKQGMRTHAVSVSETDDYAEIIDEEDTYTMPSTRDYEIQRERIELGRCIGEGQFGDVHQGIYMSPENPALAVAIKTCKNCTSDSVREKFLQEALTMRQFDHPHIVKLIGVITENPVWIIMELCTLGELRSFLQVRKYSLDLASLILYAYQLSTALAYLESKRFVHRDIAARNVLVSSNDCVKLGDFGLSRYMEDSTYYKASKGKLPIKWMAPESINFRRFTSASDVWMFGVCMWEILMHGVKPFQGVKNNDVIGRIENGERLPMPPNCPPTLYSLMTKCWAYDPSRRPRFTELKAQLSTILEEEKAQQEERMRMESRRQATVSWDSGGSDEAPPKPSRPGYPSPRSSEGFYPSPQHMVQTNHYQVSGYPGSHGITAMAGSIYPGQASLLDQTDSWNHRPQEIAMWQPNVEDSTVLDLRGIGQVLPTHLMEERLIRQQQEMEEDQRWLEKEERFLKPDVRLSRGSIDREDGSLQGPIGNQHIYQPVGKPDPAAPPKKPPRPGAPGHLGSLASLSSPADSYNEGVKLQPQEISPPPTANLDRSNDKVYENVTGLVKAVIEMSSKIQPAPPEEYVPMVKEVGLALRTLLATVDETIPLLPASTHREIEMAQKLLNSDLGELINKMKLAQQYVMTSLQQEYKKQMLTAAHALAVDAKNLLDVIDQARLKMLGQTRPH

HeLa = assay: Antiproliferative activity against human HeLa cells assessed as reduction in cell viability by MTT assay; format: functional, cell-based
HCT-116 [2] = assay: Antiproliferative activity against human HCT-116 cells assessed as reduction in cell viability by MTT assay; format: functional, cell-based
MDA-MB-231 [3] = assay: Antiproliferative activity against human MDA-MB-231 cells assessed as reduction in cell viability by MTT assay; format: functional, cell-based
Insulin receptor = Insulin receptor (Homo sapiens, UniProt P06213); assay: Inhibition of INSR (unknown origin)
Insulin receptor, sequence (P06213 28-758 limits assumed): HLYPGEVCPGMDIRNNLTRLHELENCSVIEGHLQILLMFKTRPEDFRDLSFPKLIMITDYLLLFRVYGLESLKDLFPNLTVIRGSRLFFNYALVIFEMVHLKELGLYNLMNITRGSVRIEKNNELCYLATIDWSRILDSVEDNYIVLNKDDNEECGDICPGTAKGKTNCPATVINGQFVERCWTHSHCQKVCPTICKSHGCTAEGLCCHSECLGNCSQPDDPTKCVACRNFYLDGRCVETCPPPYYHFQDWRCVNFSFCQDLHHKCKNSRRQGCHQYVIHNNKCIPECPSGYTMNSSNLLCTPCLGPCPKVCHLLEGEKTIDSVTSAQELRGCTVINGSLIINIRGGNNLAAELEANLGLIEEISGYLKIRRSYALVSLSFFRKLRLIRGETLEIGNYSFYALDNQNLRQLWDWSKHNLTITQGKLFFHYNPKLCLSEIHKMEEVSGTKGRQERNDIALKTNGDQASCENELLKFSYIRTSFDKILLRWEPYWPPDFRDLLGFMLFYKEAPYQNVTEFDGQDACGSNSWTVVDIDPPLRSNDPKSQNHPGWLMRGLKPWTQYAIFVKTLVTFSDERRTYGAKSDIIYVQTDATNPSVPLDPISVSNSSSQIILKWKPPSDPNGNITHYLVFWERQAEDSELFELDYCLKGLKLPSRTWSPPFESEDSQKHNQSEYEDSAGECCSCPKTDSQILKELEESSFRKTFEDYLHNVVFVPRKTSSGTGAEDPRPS
Insulin receptor, sequence (P06213 763-1382 limits assumed): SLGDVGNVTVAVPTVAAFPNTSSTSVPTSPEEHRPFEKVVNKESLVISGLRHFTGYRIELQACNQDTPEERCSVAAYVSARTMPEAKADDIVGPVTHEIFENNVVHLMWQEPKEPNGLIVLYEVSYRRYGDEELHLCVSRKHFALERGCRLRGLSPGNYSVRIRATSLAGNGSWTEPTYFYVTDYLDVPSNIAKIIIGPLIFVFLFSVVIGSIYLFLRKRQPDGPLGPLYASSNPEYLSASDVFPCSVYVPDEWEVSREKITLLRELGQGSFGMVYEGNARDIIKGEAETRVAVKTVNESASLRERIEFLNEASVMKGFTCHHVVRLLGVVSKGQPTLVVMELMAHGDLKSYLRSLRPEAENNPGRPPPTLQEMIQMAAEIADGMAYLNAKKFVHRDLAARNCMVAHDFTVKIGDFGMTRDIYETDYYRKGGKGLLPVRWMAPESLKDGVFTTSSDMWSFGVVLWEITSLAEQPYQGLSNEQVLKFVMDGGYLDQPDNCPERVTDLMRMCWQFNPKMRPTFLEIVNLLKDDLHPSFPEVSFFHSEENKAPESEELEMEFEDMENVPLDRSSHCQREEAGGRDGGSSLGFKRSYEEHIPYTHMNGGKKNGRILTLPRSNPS

DLD-1 = assay: Cytotoxicity against human DLD1 cells assessed as growth inhibition; format: functional, cell-based
HCT-116 [4] = assay: Cytotoxicity against human HCT-116 cells; format: functional, cell-based
[5] = molecular target: T2, von Hippel-Lindau disease tumor suppressor/Bromodomain-containing protein 4 (Homo sapiens, UniProt O60885+P40337); assay: PROTAC activity at BRD4/VHL E3 ligase in human HEK293 cells assessed as degradation of BRD4 incubated for 18 hrs by Nano-Glo HiBiT assay; format: cell-based
T2 sequence (P40337 whole entry, looked up, other chains not shown): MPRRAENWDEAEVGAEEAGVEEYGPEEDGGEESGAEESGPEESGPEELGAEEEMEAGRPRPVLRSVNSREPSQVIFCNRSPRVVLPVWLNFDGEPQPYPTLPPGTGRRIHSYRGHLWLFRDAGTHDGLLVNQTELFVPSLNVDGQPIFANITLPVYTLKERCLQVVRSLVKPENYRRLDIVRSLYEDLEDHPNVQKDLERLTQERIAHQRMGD

A-375 = assay: Antiproliferative activity against human A-375 cells assessed as reduction in cell viability incubated for 72 hrs by MTT assay; format: functional, cell-based; details: A-375, 72 h
MCF7 [6] = assay: Antiproliferative activity against human MCF7 cells assessed as reduction in cell viability incubated for 72 hrs by MTT assay; format: functional, cell-based; details: MCF7, 72 h
HepG2 [7] = assay: Antiproliferative activity against human HepG2 cells assessed as reduction in cell viability incubated for 72 hrs by MTT assay; format: functional, cell-based; details: HepG2, 72 h
SGC-7901 = assay: Antiproliferative activity against human SGC-7901 cells assessed as reduction in cell viability incubated for 72 hrs by MTT assay; format: functional, cell-based; details: SGC-7901, 72 h
MGC-803 [8] = assay: Antitumor activity against human MGC-803 cells xenografted in nude mouse assessed as tumor inhibition at 20 mg/kg, ip administered once every two days for 21 days relative to control; format: functional; set-up: scale not given: the % may be the effect or the level left; details: time 21 day
[9] = Half life in human at 20 mg/kg, po; format: ADME, organism-based; details: in vivo
Focal adhesion kinase 1 [10] = molecular target: T1, Focal adhesion kinase 1; assay: Inhibition of FAK (unknown origin) at 0.1 uM relative to control
Target sequence in this assay (Q05397 2-1052 limits assumed): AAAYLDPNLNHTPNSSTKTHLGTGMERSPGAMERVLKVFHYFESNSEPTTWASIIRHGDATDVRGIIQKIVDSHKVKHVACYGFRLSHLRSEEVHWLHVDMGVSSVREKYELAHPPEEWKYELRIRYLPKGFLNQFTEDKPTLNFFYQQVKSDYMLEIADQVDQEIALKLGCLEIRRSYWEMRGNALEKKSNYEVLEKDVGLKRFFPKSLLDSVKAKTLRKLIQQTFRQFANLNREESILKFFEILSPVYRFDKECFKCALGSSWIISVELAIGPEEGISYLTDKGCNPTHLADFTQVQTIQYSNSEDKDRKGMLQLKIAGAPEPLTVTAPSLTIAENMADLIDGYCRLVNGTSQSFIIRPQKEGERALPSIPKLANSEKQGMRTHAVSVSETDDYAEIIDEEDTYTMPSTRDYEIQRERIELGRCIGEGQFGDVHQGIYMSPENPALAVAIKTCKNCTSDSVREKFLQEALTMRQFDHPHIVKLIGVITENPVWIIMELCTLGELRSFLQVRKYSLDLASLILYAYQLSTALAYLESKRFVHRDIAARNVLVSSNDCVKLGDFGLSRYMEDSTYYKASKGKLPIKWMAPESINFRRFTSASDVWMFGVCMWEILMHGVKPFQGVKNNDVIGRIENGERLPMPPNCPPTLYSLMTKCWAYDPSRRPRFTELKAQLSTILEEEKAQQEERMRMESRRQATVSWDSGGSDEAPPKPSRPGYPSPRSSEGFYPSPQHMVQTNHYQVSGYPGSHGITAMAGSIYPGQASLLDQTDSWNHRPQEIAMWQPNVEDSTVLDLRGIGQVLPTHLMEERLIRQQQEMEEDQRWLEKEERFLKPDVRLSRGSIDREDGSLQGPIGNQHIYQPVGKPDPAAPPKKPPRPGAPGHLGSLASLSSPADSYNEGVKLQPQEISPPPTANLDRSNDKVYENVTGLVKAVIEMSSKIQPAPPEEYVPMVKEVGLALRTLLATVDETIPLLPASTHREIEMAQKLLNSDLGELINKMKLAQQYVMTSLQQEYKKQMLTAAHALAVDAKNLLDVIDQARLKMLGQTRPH

Focal adhesion kinase 1 [11] = molecular target: T1, Focal adhesion kinase 1; assay: Inhibition of FAK (unknown origin) at 0.5 uM relative to control
Target sequence in this assay (Q05397 2-1052 limits assumed): as above

[12] = Half life in human plasma; format: ADME, cell-free
[13] = molecular target: T2, von Hippel-Lindau disease tumor suppressor/Bromodomain-containing protein 4; assay: PROTAC activity at BRD4/VHL E3 ligase in human HEK293 cells assessed as maximal degradation of BRD4 at 10 nM incubated for 18 hrs by Nano-Glo HiBiT assay relative to control; format: cell-based
Histone deacetylase 1 = Histone deacetylase 1 (Homo sapiens, UniProt Q13547); assay: Inhibition of HDAC1 (unknown origin)
Histone deacetylase 1, sequence (Q13547 whole entry): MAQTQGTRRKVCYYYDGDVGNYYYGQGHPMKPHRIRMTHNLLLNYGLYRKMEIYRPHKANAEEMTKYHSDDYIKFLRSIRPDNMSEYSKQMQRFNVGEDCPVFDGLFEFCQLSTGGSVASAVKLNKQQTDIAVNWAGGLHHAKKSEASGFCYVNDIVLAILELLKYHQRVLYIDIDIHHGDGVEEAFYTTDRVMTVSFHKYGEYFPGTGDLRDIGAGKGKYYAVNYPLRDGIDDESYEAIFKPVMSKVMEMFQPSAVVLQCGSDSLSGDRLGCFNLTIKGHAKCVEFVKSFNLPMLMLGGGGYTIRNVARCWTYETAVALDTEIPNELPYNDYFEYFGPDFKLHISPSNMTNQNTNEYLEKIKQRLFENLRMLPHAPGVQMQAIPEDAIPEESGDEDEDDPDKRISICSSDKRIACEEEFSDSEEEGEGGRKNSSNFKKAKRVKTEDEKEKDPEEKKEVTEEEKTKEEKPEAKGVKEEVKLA

Histone deacetylase 2 = Histone deacetylase 2 (Homo sapiens, UniProt Q92769); assay: Inhibition of HDAC2 (unknown origin)
Histone deacetylase 3 = Histone deacetylase 3 (Homo sapiens, UniProt O15379); assay: Inhibition of HDAC3 (unknown origin)
Histone deacetylase 3, sequence (O15379 whole entry): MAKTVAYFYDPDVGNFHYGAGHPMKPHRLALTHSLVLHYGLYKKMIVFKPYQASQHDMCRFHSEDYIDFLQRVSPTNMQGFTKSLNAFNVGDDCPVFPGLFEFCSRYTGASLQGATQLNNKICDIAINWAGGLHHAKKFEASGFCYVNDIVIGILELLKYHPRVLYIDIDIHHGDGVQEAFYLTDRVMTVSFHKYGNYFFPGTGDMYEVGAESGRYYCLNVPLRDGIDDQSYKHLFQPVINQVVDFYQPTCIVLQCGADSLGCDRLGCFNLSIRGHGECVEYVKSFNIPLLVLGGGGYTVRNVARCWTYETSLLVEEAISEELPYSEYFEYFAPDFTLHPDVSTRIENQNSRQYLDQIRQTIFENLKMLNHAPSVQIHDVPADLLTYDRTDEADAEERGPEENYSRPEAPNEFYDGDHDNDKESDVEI

MGC-803 [14] = assay: Antiproliferative activity against human MGC-803 cells; format: functional, cell-based
HGC-27 = assay: Antiproliferative activity against human HGC-27 cells; format: functional, cell-based
BGC-823 = assay: Antiproliferative activity against human BGC-823 cells; format: functional, cell-based
DU-145 = assay: Antiproliferative activity against human DU-145 cells; format: functional, cell-based
[15] = Antiproliferative activity against human PC-3 cells; format: functional, cell-based
A549 [16] = assay: Antiproliferative activity against human A549 cells; format: functional, cell-based
NCI-H520 = assay: Antiproliferative activity against human NCI-H520 cells; format: functional, cell-based
MCF7 [17] = assay: Antiproliferative activity against human MCF7 cells; format: functional, cell-based
MDA-MB-231 [18] = assay: Antiproliferative activity against human MDA-MB-231 cells; format: functional, cell-based
ECa-109 cell line = assay: Antiproliferative activity against human EC109 cells; format: functional, cell-based
TE-1 = assay: Antiproliferative activity against human TE-1 cells; format: functional, cell-based
KYSE-450 = assay: Antiproliferative activity against human KYSE-450 cells; format: functional, cell-based
HCT-116 [19] = assay: Antiproliferative activity against human HCT-116 cells; format: functional, cell-based
[20] = Half life in human at 1 mg/kg, iv by LC-MS/MS analysis; format: ADME, organism-based; details: in vivo
[21] = Half life in human at 10 mg/kg, po by LC-MS/MS analysis; format: ADME, organism-based; details: in vivo
[22] = Oral bioavailability in human at 10 mg/kg; format: ADME, organism-based; details: in vivo
A549 [23] = assay: Antiproliferative activity against human A549 cells assessed as reduction in cell viability incubated for 48 hrs by MTT assay; format: functional, cell-based; details: A549, 48 h
U-87 MG = assay: Antiproliferative activity against human U-87 MG cells assessed as reduction in cell viability incubated for 48 hrs by MTT assay; format: functional, cell-based, U-87MG ATCC
MDA-MB-231 [24] = assay: Antiproliferative activity against human MDA-MB-231 cells assessed as reduction in cell viability incubated for 48 hrs by MTT assay; format: functional, cell-based; details: MDA-MB-231, 48 h
PANC-1 = assay: Antiproliferative activity against human PANC-1 cells assessed as reduction in cell viability incubated for 48 hrs by MTT assay; format: functional, cell-based; details: PANC-1, 48 h
BXPC-3 = assay: Antiproliferative activity against human BXPC-3 cells assessed as reduction in cell viability incubated for 48 hrs by MTT assay; format: functional, cell-based; details: BXPC-3, 48 h
HepG2 [25] = assay: Antiproliferative activity against human HepG2 cells assessed as reduction in cell viability incubated for 48 hrs by MTT assay; format: functional, cell-based; details: HepG2, 48 h
MCF7 [26] = assay: Antiproliferative activity against human MCF7 cells assessed as reduction in cell viability incubated for 48 hrs by MTT assay; format: functional, cell-based; details: MCF7, 48 h
HCT-15 = assay: Antiproliferative activity against human HCT-15 cells assessed as reduction in cell viability incubated for 48 hrs by MTT assay; format: functional, cell-based; details: HCT-15, 48 h
[27] = Antiproliferative activity against human BEAS-2B cells assessed as reduction in cell viability incubated for 48 hrs by MTT assay; format: toxicity, cell-based
[28] = Antiproliferative activity against HUVEC cells assessed as cell growth inhibition measured after 72 hrs by crystal violet staining based analysis; format: toxicity; details: human

IC50 (Focal adhesion kinase 1 [1]): 47.2 nM
Compound: CNC(=O)c1ccccc1Nc1nc(Nc2ccc(/C=C/C(=O)N3CCOCC3)cc2)ncc1Cl

IC50 (Focal adhesion kinase 1 [1]): 52 nM | IC50 (HeLa): 2680 nM | IC50 (HCT-116 [2]): 640 nM | IC50 (MDA-MB-231 [3]): 4190 nM | IC50 (Insulin receptor): 168 nM
Compound: CNC(=O)c1ccccc1Nc1nc(Nc2ccc(N3CCN(C(=S)SCCCN4CCOCC4)CC3)cc2)ncc1Cl

Compound: COc1cc2nc(-c3ccc(C(F)(F)F)cc3)cc(OCCCNCC3CCCO3)c2cc1OC (stereo unspecified)
IC50 (DLD-1): 2480 nM | IC50 (HCT-116 [4]): 5680 nM

IC50 (HeLa): 270 nM | IC50 (HCT-116 [2]): 190 nM | IC50 (MDA-MB-231 [3]): 260 nM | IC50 (Insulin receptor): > 1000 nM
Compound: O=C1CCc2cccc(Oc3nc(Nc4ccc(N5CCN(C(=S)SCCCN6CCOCC6)CC5)cc4)ncc3C(F)(F)F)c21

Compound: COc1cc2nc(-c3ccc(C(F)(F)F)cc3)cc(OCCCN3CCN(C)CC3)c2cc1OC
IC50 (DLD-1): 2250 nM | IC50 (HCT-116 [4]): 3090 nM

DC50 [5]: 3 nM
Compound: Cc1ncsc1-c1ccc(CNC(=O)[C@@H]2C[C@@H](O)CN2C(=O)[C@@H](NC(=O)CCOCCOc2ccc(Nc3ncc(C(F)(F)F)c(NCc4cccc(N(C)S(C)(=O)=O)c4)n3)cc2)C(C)(C)C)cc1

IC50 (Focal adhesion kinase 1 [1]): 3.7 nM
Compound: CC(=O)NCCC(=O)Nc1cc(Nc2ncc(Br)c(Nc3ccc(NC(C)=O)cc3NC(C)=O)n2)ccc1OCCF

IC50 (A-375): 7130 nM | IC50 (MCF7 [6]): 7920 nM | IC50 (HepG2 [7]): 5560 nM | IC50 (SGC-7901): 11700 nM
Compound: O=C(CSC1Nc2ccccc2C(=O)N1c1ccccc1)N1CCN(c2ccccc2Cl)CC1 (stereo unspecified)

Compound: COc1cc2nc(-c3ccc(C(F)(F)F)cc3)cc(OCCCNC3CCN(C)CC3)c2cc1OC
IC50 (DLD-1): 1790 nM | IC50 (HCT-116 [4]): 3280 nM

DC50 [5]: 8.4 nM
Compound: CNC(=O)c1ccccc1Nc1cc(Nc2ccc(N3CCN(CC(=O)N[C@H](C(=O)N4C[C@H](O)C[C@H]4C(=O)N[C@@H](C)c4ccc(-c5scnc5C)cc4)C(C)(C)C)CC3)cc2OC)ncc1C(F)(F)F

Compound: CNC(=O)c1ccccc1Nc1nc(Nc2ccc(N3CCOCC3)cc2OC)ncc1Cl
Activity (MGC-803 [8]): 53.53%

half-life [9]: 4.08 h
Compound: COc1cc(C(=O)NC2CCNCC2)ccc1Nc1nc(Oc2cccc3c2C(=O)CC3)c2cc[nH]c2n1

Compound: Clc1ccc(-c2cc(OCCCN3CCOCC3)c3cc(-c4ccco4)ccc3n2)cc1
IC50 (DLD-1): 2090 nM | IC50 (HCT-116 [4]): 2960 nM

inhibition (Focal adhesion kinase 1 [10]): 84.4% | inhibition (Focal adhesion kinase 1 [11]): 96.9% | half-life [12]: > 3.25 h | Emax [13]: 85%
Compound: CN(c1ncccc1CNc1nc(Nc2ccc(N3CCN(CCCCCCC(=O)NCCNc4cccc5c4C(=O)N(C4CCC(=O)NC4=O)C5=O)CC3)cc2)ncc1C(F)(F)F)S(C)(=O)=O (stereo unspecified)

IC50 (Focal adhesion kinase 1 [1]): 48 nM | IC50 (HeLa): 190 nM | IC50 (HCT-116 [2]): 170 nM | IC50 (MDA-MB-231 [3]): 180 nM | IC50 (Insulin receptor): 107 nM
Compound: CCCS(=O)(=O)NCC(=O)N1CCN(c2ccc(Nc3ncc(Cl)c(Nc4ccccc4C(=O)NC)n3)cc2)CC1

IC50 (Histone deacetylase 1): 526 nM | IC50 (Histone deacetylase 2): 629 nM | IC50 (Histone deacetylase 3): 1050 nM | IC50 (MGC-803 [14]): 182 nM | IC50 (BGC-823): 194 nM | IC50 (DU-145): 467 nM | IC50 (A549 [16]): 1790 nM | IC50 (NCI-H520): 2580 nM | IC50 (MCF7 [17]): 834 nM | IC50 (MDA-MB-231 [18]): 1890 nM | IC50 (HCT-116 [19]): 248 nM
Compound: CNC(=O)c1ccccc1Nc1nc(Nc2ccc(NC(=O)CCCCCCC(=O)NO)cc2)ncc1Cl
IC50 (HGC-27): 512 nM | IC50 [15]: 667 nM | IC50 (ECa-109 cell line): 981 nM | IC50 (TE-1): 1130 nM | IC50 (KYSE-450): 619 nM

IC50 (Focal adhesion kinase 1 [1]): 9.9 nM | half-life [20]: 2.41 h | half-life [21]: 3.8 h | bioavailability [22]: 77.6% | IC50 (A549 [23]): 800 nM | IC50 (U-87 MG): 12700 nM | IC50 (MDA-MB-231 [24]): 1600 nM | IC50 (PANC-1): 3700 nM | IC50 (BXPC-3): 2300 nM | IC50 (HepG2 [25]): 3500 nM | IC50 (MCF7 [26]): 2000 nM | IC50 (HCT-15): 900 nM
Compound: Clc1cccc(Cn2ccc3cnc(NC4CCC(N5CCNCC5)CC4)nc32)c1 (stereo unspecified)
IC50 at 48 h [27]: 7100 nM | IC50 at 72 h [28]: 6900 nM
